Test results from patent US11939334B2, “Substituted pyrimido[4,5-b][1,4]diazepines as PLK1 degradation inducers” (UPPTHERA, INC., priority 2021, dated 2024).
pIC50: −log10 of the molar value.

Legend:
[1] = Cell viability assay for MRC-5 cell line; settings: human
Description: Cell Viability Assay for MRC-5 Cell Line
(1) Culture of MRC-5 Cell Line
The MRC-5 cell line was purchased from Korea Cell Line Bank (KCLB), Seoul, Korea. Passage of cultured cells was maintained within P15.
6×10^3 cells were seeded for each well of a 96-well plate (SPL), and the cells were cultured in total volume of 150 μL.
Each well was mixed with a medium and treated, and the volume was set to 50 μL, so that the total volume of each well was 200 μL. Then, it was cultured in 37° C.
The following compounds were used as comparative examples, and the cell viability assay was performed in the same manner as in the compounds of Examples.
(3) Cytotoxicity Experiment
After treating EZ-Cytox (DOGEN, Cat. NO. EZ-3000, Lot. No. DLS2112) 20 μL in each well of completely cultured plate, it was cultured in 37° C. CO2 incubator for 4 hours. […] The data were converted into graphs using the Prism (ver. 9) program.

H526 cell line = assay: Cell viability assay for H526 cell line; format: cell-based; settings: Homo sapiens, NCI-H526, 120 h; H526 cells, 5 days, EZ-Cytox, 0.46-3000 nM
Description: 3. Cell Viability Assay for H526 Cell Line
(1) Culture of NCI-H526 Cell Line
(2) Treatment of Compounds of the Present Invention and Method of Cell Viability Assay
After treating the compound to each well to make the total volume of 200 μL, it was cultured in a CO2 incubator (Thermo Fisher Science, Cat. No. 4111) for 5 days.
The absorbance of the completely cultured sample was measured by setting the wavelength of a plate reader (BMG Labtech, CLARIOstar Plus) to […], and was measured after shaking for 3 minutes in a plate reader before measurement.
In Table 3, Activity represents IC50 value of each Exemplary Compound treatment group to H526 cell line (A: <30 nM, B: <50 nM, C: <100 nM, D: <200 nM, E: <400 nM).

PLK1 = molecular target: T1, PLK1 (Homo sapiens, UniProt P53350); assay: Luciferase assay for PLK1 in HeLa LgBit (Plk1-HiBit KI) cell line; format: cell-based; settings: 300 nM compound, luminescence after 9 hours
T1 construct: endogenous in cells; host or cells: HeLa cells stably expressing LgBit, with CRISPR/Cas9 knock-in of HiBit at the endogenous PLK1 locus
T1 sequence (P53350 whole entry): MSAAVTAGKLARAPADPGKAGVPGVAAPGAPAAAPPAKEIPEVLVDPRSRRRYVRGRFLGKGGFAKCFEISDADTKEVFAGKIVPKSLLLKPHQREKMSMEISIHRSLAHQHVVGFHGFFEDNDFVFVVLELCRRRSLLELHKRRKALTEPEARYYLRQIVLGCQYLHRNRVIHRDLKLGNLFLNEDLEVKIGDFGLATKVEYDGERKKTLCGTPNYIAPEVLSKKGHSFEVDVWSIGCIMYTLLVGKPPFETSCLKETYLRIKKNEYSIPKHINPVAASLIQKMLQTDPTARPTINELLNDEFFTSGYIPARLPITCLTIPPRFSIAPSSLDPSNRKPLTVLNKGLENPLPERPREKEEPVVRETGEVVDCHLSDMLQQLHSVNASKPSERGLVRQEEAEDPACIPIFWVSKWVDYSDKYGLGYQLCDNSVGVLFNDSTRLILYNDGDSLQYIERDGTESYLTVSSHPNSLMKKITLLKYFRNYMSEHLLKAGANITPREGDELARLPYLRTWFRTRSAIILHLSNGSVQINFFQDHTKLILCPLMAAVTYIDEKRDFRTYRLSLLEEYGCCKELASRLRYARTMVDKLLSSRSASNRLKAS
Description: 2. Luciferase Assay for PLK1
(1) Preparation and Culture of HeLa LgBit (Plk1-HiBit KI) Cell Line
A HeLa cell line in which the LgBit vector was transfected and expressed stably was prepared. Then, after constructing gRNA and donor to express the HiBit amino acid sequence behind the C-terminal of the Plk1 gene, which was inherent in the cell, it was inserted into the cell together with a vector capable of expressing CRISPR/Cas9. Only the cells in which the insertion was completed and knock-in had progressed were selected, sub-cultured and used.
(2) Treatment of Compounds of the Present Invention and Method of Luciferase Assay
In the case of HeLa LgBit (Plk1-HiBit KI), the compounds were treated after being released after thymidine block, and the process was as follows. Thymidine (Sigma-Aldrich Cat. No. T9250-5G) was completely dissolved in DW and used in the experiment. For thymidine block, the products were treated with 2 mM of thymidine and then incubated for 24 hours. For release and chemical treatment, the medium was suctioned and washed with 1×PBS. TrypLE™ was added and incubated in 37° C. CO2 incubator for 5 min. Cells neutralized by adding complete media were counted through a counter. For each well of a 96-well culture plate (SPL), 3.3×10^4 cells and a total medium volume of 150 μL were seeded and incubated in a CO2 incubator.
Each cell line was incubated in a CO2 incubator for 18 hours, and Endurazine was added to each well to make up 4% of the total volume. After adding the compound of the present invention in a 96-well white plate (SPL) to a concentration of 300 nM, the wavelength of the plate reader (BMG Labtech, CLARIOstar Plus) was set to […], and then the luminescence was tracked in real time.
The results are shown in Table 2 below and FIGS. 1 and 2.
In Table 2, Activity represents the ratio of the luminescence value of each Exemplary Compound treatment group to DMSO treatment group (+++: <0.3, ++ <0.6, + <0.7).

Structure (SMILES) | IC50 at 5 days [1] [µM] | pIC50 (H526 cell line) | Activity: ratio of the luminescence value of each Exemplary Compound treatment group to DMSO treatment group (PLK1) | IC50 at 5 days ([1]; MRC-5 cells (normal cell line)) [µM]
COc1cc(C(=O)OC2CC3(CCN(CC4CCN(c5ccc(C6CCC(=O)NC6=O)cc5F)CC4)CC3)C2)ccc1Nc1ncc2c(n1)N(C(C)C)CC(F)(F)C(=O)N2C (stereo not drawn) [Compound 25, 7-((1-(4-(2,6-dioxopiperidin-3-yl)-2-fluorophenyl)piperidin-4-yl)methyl)-7-azaspiro[3.5]nonan-2-yl 4-((7,7-difluoro-9-isopropyl-5-methyl-6-oxo-6,7,8,9-tetrahydro-5H-pyrimido[4,5-b][1,4]diazepin-2-yl)amino)-3-methoxybenzoate] | > 10 | > 6.70 | ++ (++ <0.6) | 
COc1cc(C(=O)NN2CC3(CCC(CN4CCN(c5ccc(C6CCC(=O)NC6=O)cc5F)CC4)CC3)C2)ccc1Nc1ncc2c(n1)N(C(C)C)CC(F)(F)C(=O)N2C (stereo not drawn) [Compound 31, 4-((7,7-difluoro-9-isopropyl-5-methyl-6-oxo-6,7,8,9-tetrahydro-5H-pyrimido[4,5-b][1,4]diazepin-2-yl)amino)-N-(7-((4-(4-(2,6-dioxopiperidin-3-yl)-2-fluorophenyl)piperazin-1-yl)methyl)-2-azaspiro[3.5]nonan-2-yl)-3-methoxybenzamide] | > 10 | > 7.52 | +++ (+++: <0.3) | 
COc1cc(C(=O)NC2CC3(CCN(CC4CCN(c5ccc(C6CCC(=O)NC6=O)cc5F)C(C)C4)CC3)C2)ccc1Nc1ncc2c(n1)N(C(C)C)CC(F)(F)C(=O)N2C (stereo not drawn) [Compound 32, 4-((7,7-difluoro-9-isopropyl-5-methyl-6-oxo-6,7,8,9-tetrahydro-5H-pyrimido[4,5-b][1,4]diazepin-2-yl)amino)-N-(7-((1-(4-(2,6-dioxopiperidin-3-yl)-2-fluorophenyl)-2-methylpiperidin-4-yl)methyl)-7-azaspiro[3.5]nonan-2-yl)-3-methoxybenzamide] | > 10 | > 7.52 | +++ (+++: <0.3) | 
COc1cc(C(=O)NC2CC3(CCN(CC4(O)CCN(c5ccc(C6CCC(=O)NC6=O)cc5F)CC4)CC3)C2)ccc1Nc1ncc2c(n1)N(C(C)C)CC(F)(F)C(=O)N2C (stereo not drawn) [Compound 33, 4-((7,7-difluoro-9-isopropyl-5-methyl-6-oxo-6,7,8,9-tetrahydro-5H-pyrimido[4,5-b][1,4]diazepin-2-yl)amino)-N-(7-((1-(4-(2,6-dioxopiperidin-3-yl)-2-fluorophenyl)-4-hydroxypiperidin-4-yl)methyl)-7-azaspiro[3.5]nonan-2-yl)-3-methoxybenzamide] | > 10 | > 7.52 | ++ (++ <0.6) | 
COc1cc(C(=O)NC2CC3(CCN(CC4CCN(c5ccc(C6CCC(=O)NC6=O)cc5C)CC4)CC3)C2)ccc1Nc1ncc2c(n1)N(C(C)C)CC(F)(F)C(=O)N2C (stereo not drawn) [Compound 35, 4-((7,7-difluoro-9-isopropyl-5-methyl-6-oxo-6,7,8,9-tetrahydro-5H-pyrimido[4,5-b][1,4]diazepin-2-yl)amino)-N-(7-((1-(4-(2,6-dioxopiperidin-3-yl)-2-methylphenyl)piperidin-4-yl)methyl)-7-azaspiro[3.5]nonan-2-yl)-3-methoxybenzamide] | > 10 | > 7.52 | ++ (++ <0.6) | 
COc1cc(C(=O)NC2CC3(CCN(CC4CCN(c5ccc(C6CCC(=O)NC6=O)cc5OC)CC4)CC3)C2)ccc1Nc1ncc2c(n1)N(C(C)C)CC(F)(F)C(=O)N2C (stereo not drawn) [Compound 36, 4-((7,7-difluoro-9-isopropyl-5-methyl-6-oxo-6,7,8,9-tetrahydro-5H-pyrimido[4,5-b][1,4]diazepin-2-yl)amino)-N-(7-((1-(4-(2,6-dioxopiperidin-3-yl)-2-methoxyphenyl)piperidin-4-yl)methyl)-7-azaspiro[3.5]nonan-2-yl)-3-methoxybenzamide] | > 10 | > 7.52 | ++ (++ <0.6) | 
COc1cc(C(=O)NN2CCN(C3CCN(c4ccc(C5CCC(=O)NC5=O)cc4F)C3)CC2)ccc1Nc1ncc2c(n1)N(C(C)C)CC(F)(F)C(=O)N2C (stereo not drawn) [Compound 38, 4-((7,7-difluoro-9-isopropyl-5-methyl-6-oxo-6,7,8,9-tetrahydro-5H-pyrimido[4,5-b][1,4]diazepin-2-yl)amino)-N-(4-(1-(4-(2,6-dioxopiperidin-3-yl)-2-fluorophenyl)pyrrolidin-3-yl)piperazin-1-yl)-3-methoxybenzamide] |  | > 7.30 | +++ (+++: <0.3) | > 10
COc1cc(C(=O)NN2CCC(CN3CCC4(CC3)CN(c3ccc(C5CCC(=O)NC5=O)cc3F)C4)CC2)ccc1Nc1ncc2c(n1)N(C(C)C)CC(F)(F)C(=O)N2C (stereo not drawn) [Compound 42, 4-((7,7-difluoro-9-isopropyl-5-methyl-6-oxo-6,7,8,9-tetrahydro-5H-pyrimido[4,5-b][1,4]diazepin-2-yl)amino)-N-(4-((2-(4-(2,6-dioxopiperidin-3-yl)-2-fluorophenyl)-2,7-diazaspiro[3.5]nonan-7-yl)methyl)piperidin-1-yl)-3-methoxybenzamide] |  | > 7.52 | ++ (++ <0.6) | > 10
COc1cc(C(=O)NC2CCC(CCN3CCN(c4ccc(C5CCC(=O)NC5=O)cc4F)CC3)CC2)ccc1Nc1ncc2c(n1)N(C(C)C)CC(F)(F)C(=O)N2C (stereo not drawn) [Compound 43, 4-((7,7-difluoro-9-isopropyl-5-methyl-6-oxo-6,7,8,9-tetrahydro-5H-pyrimido[4,5-b][1,4]diazepin-2-yl)amino)-N-((1r,4r)-4-(2-(4-(4-(2,6-dioxopiperidin-3-yl)-2-fluorophenyl)piperazin-1-yl)ethyl)cyclohexyl)-3-methoxybenzamide] |  | > 7.52 | +++ (+++: <0.3) | > 10
COc1cc(C(=O)NC2CC(N(C)CC3CCN(c4ccc(C5CCC(=O)NC5=O)cc4F)CC3)C2)ccc1Nc1ncc2c(n1)N(C(C)C)CC(F)(F)C(=O)N2C (stereo not drawn) [Compound 44, 4-((7,7-difluoro-9-isopropyl-5-methyl-6-oxo-6,7,8,9-tetrahydro-5H-pyrimido[4,5-b][1,4]diazepin-2-yl)amino)-N-(3-(((1-(4-(2,6-dioxopiperidin-3-yl)-2-fluorophenyl)piperidin-4-yl)methyl)(methyl)amino)cyclobutyl)-3-methoxybenzamide] |  | > 7.52 | +++ (+++: <0.3) | > 10
COc1cc(C(=O)NN2CCC(CCN3CCN(c4ccc(C5CCC(=O)NC5=O)cc4F)CC3)CC2)ccc1Nc1ncc2c(n1)N(C(C)C)CC(F)(F)C(=O)N2C (stereo not drawn) [Compound 45, 4-((7,7-difluoro-9-isopropyl-5-methyl-6-oxo-6,7,8,9-tetrahydro-5H-pyrimido[4,5-b][1,4]diazepin-2-yl)amino)-N-(4-(2-(4-(4-(2,6-dioxopiperidin-3-yl)-2-fluorophenyl)piperazin-1-yl)ethyl)piperidin-1-yl)-3-methoxybenzamide] |  | > 7.52 | +++ (+++: <0.3) | > 10
COc1cc(C(=O)NC2CC23CCN(CC2CCN(c4ccc(C5CCC(=O)NC5=O)cc4F)CC2)CC3)ccc1Nc1ncc2c(n1)N(C(C)C)CC(F)(F)C(=O)N2C (stereo not drawn) [Compound 46, 4-((7,7-difluoro-9-isopropyl-5-methyl-6-oxo-6,7,8,9-tetrahydro-5H-pyrimido[4,5-b][1,4]diazepin-2-yl)amino)-N-(6-((1-(4-(2,6-dioxopiperidin-3-yl)-2-fluorophenyl)piperidin-4-yl)methyl)-6-azaspiro[2.5]octan-1-yl)-3-methoxybenzamide] | > 10 | > 7.00 | +++ (+++: <0.3) | 
